From PubChem BioAssay (NCI)
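Dose response: 5 concentrations. Exposure: 48 h. Format: 96-well plates. Endpoint: linear interpolation; highest concentration if not reached. TGI: concentration producing complete growth inhibition.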

Legend:
Assay in all cases: NCI tumour cell line growth inhibition, 48 h
SF-295 CNS = system: SF-295 CNS
SK-OV-3 ovarian = system: SK-OV-3 ovarian
LOX IMVI melanoma = system: LOX IMVI melanoma
OVCAR-4 ovarian = system: OVCAR-4 ovarian
HOP-62 NSCLC = system: HOP-62 NSCLC
OVCAR-3 ovarian = system: OVCAR-3 ovarian
U251 CNS = system: U251 CNS
UACC-62 melanoma = system: UACC-62 melanoma

Structure (SMILES)	TGI (SF-295 CNS)	TGI (SK-OV-3 ovarian)	TGI (LOX IMVI melanoma)	TGI (OVCAR-4 ovarian)	TGI (HOP-62 NSCLC)	TGI (OVCAR-3 ovarian)	TGI (U251 CNS)	TGI (UACC-62 melanoma)
O=C(O)CCC(NC(=O)c1ccccc1)C(=O)O (centres undefined)	> 100 µM	> 100 µM	> 100 µM	> 100 µM	> 100 µM	> 100 µM	> 100 µM	> 100 µM
O=C1C2C=CC(C2)C(c2ccc(O)cc2)N1O (centres undefined)	> 100 µM	> 100 µM		> 100 µM	> 100 µM	> 100 µM	> 100 µM	> 100 µM
Cn1ccc2c(C(=O)c3ccccc3)cccc2c1=O	66.9 µM	> 100 µM	> 100 µM	> 100 µM	93.7 µM	> 100 µM		> 100 µM
COc1ccccc1C1c2cc3c(cc2OC(O)(CO)C1C(=O)O)OCO3 (centres undefined) (tested in a mixture with another compound)	> 100 µM	> 100 µM	> 100 µM	> 100 µM	> 100 µM	> 100 µM	> 100 µM	> 100 µM
Cc1ccc(NC(=O)C(=O)CC(=O)c2c(C)n([O-])c3ccccc3[n+]2=O)cc1	> 100 µM	> 100 µM	45.4 µM	96.3 µM	> 100 µM	35.1 µM	92.3 µM	32.6 µM
CN(C)C=[N+]=[N-]	> 100 µM	> 100 µM		> 100 µM	> 100 µM	> 100 µM	> 100 µM	> 100 µM
C[N+]1(C)C/C(=C\c2ccccc2)C(=O)/C(=C/c2ccccc2)C1	> 100 µM	> 100 µM		> 100 µM	> 100 µM	> 100 µM	> 100 µM	
Cc1c(C(=O)CC(=O)C(=O)Nc2ccc(Cl)cc2)[n+](=O)c2ccccc2n1[O-]	> 100 µM	> 100 µM		> 100 µM		> 100 µM	> 100 µM	> 100 µM
O=[N+]([O-])c1cc(C2SCc3nc4ccccc4n32)ccc1Cl (centres undefined)	> 100 µM	66.2 µM				67.6 µM	> 100 µM	52.6 µM
O=C(O)CNS(=O)(=O)c1ccc(NC(=O)CI)cc1	68.5 µM	72.8 µM	37.6 µM	41.4 µM		62 µM	35 µM	66.8 µM
COc1ccc(S(=O)(=O)N/N=C/c2cc(I)cc([N+](=O)[O-])c2O)cc1OC	> 100 µM	92.2 µM	> 100 µM	70.3 µM		66.3 µM	> 100 µM	59.7 µM
C[C@]12CCC(=O)C(O)=C1CC[C@@H]1C2CC[C@]2(C)Nc3c(cnn3-c3ccccc3)CC12 (some centres undefined)	> 100 µM	> 100 µM		> 100 µM	> 100 µM	> 100 µM	> 100 µM	> 100 µM
COc1ccc2c(c1)Oc1cc(O)ccc1[C@@H]2c1ccccc1C(=O)NC(C)c1ccccc1 (some centres undefined)	28.6 µM	49.1 µM	30.4 µM		35.8 µM	34.5 µM	28.8 µM	28.2 µM
COc1ccc(CC(=O)NCCc2ccc(OC)c(OC)c2)cc1Br	> 100 µM	> 100 µM	> 100 µM	> 100 µM	> 100 µM		> 100 µM	> 100 µM
O=C(NCCCCCCNC(=O)OCCSCCn1cc(C(=O)NC(=O)OCc2ccccc2)c(=O)[nH]c1=O)OCCSCCn1cc(C(=O)NC(=O)OCc2ccccc2)c(=O)[nH]c1=O	> 100 µM		> 100 µM	> 100 µM	> 100 µM	> 100 µM	> 100 µM	> 100 µM
Fc1ccccc1C1SCc2nc3ccccc3n21 (centres undefined)	> 100 µM	> 100 µM				> 100 µM		> 100 µM
CC(C)(CN1CCCCC1)C(=O)/C=C/c1ccc(Cl)cc1	11.3 µM	23.5 µM	12.5 µM	16 µM		11.9 µM	11.7 µM	20.2 µM
O=C1CCCC(=O)N1CCc1c[nH]c2ccccc12	> 100 µM	> 100 µM		> 100 µM	> 100 µM	> 100 µM	> 100 µM	> 100 µM
O=C(c1ccccc1)[C@@H]1C[C@H](Sc2ccccc2)c2cc(Cl)ccc2N1	92.5 µM		47.7 µM	> 100 µM	> 100 µM	52.2 µM	60.1 µM	51.6 µM
Cc1ccc([N+](=O)[O-])cc1NC(=O)c1cccc([N+](=O)[O-])c1O	63.3 µM	54.3 µM	> 100 µM		34 µM	64.6 µM	> 100 µM	38.1 µM
C/C=C1/CCC2c3[nH]c4ccccc4c3CCN2C1 (centres undefined)	> 100 µM	> 100 µM		> 100 µM	> 100 µM	> 100 µM	> 100 µM	> 100 µM
CCCC/C=C1\CCC(C)(CN(C)C)C1=O (centres undefined)	> 100 µM			> 100 µM	> 100 µM	> 100 µM	> 100 µM	> 100 µM
